Counter-ions that a name gives are not always drawn.

In the test the target is T1, P2X4 receptor (recombinant mouse P2X4 purinoceptor) (Mus musculus, UniProt Q9JJX6).
T1 construct: gene P2rx4; the complete extracellular domain, N-terminal His-6 tag, expressed in E. coli
T1 sequence (Q9JJX6 55-338): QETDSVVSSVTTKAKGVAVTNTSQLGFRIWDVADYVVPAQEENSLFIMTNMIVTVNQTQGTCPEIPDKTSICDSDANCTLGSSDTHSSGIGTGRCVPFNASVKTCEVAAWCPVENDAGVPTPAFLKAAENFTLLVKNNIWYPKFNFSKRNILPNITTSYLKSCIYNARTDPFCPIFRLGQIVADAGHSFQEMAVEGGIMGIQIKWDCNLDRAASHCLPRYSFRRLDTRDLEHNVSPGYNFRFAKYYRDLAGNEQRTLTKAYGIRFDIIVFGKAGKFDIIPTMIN
The experiment in a line: SPR (Biacore T200, P2X4 immobilized on CM5 chip). In kind it is binding. (In SPR one partner is held on a chip, and binding of the other changes the refractive index at the surface.)

As a reminder, the Kd is the constant that tells how readily two partners part at equilibrium. Regarding `C=C(C)CCC[C@]1(C)OC(=O)[C@]23CCC4C(=CC[C@H]5C(C)(C)[C@@H](O[C@@H]6OC[C@@H](OS(=O)(=O)O)[C@H](O)[C@H]6O[C@@H]6O[C@H](C)[C@@H](O[C@@H]7O[C@H](CO)[C@@H](O)[C@H](O[C@@H]8O[C@H](CO)[C@@H](O)[C@H](OC)[C@H]8O)[C@H]7O)[C@H](O)[C@H]6O[C@@H]6OC[C@@H](O)[C@H](O)[C@H]6O)CC[C@]45C)[C@]2(C)CC(=O)[C@@H]31` (stereo partly drawn) [CA2-2, 3-O-{3-O-methyl-β-D-glucopyranosyl-(1→3)-β-D-glucopyranosyl-(1→4)-[β-D-xylopyranosyl-(1→2)]-β-D-quinovopyranosyl-(1→2)−4-O-sodium sulfate-β-D-xylopyranosyl}−16-keto-holosta-7,25-diene], the dissociation constant (Kd) was 45.2 µM.

These data come from PMC5177912, “Glycosides from edible sea cucumbers stimulate macrophages via purinergic receptors” (Scientific Reports, 2016).
